These results are taken from patent US20240024488A1, “COMPOUNDS AND USES THEREOF” (Foghorn Therapeutics Inc., priority 2020, published 2024).

One assay deals with T1, HiBit-BRM fusion protein (Homo sapiens, UniProt P51531).
T1 construct: expressed in transfected cells
Description: HiBiT-BRM cell-based degradation assay (Nano-Glo HiBiT Lytic Detection, 24 h). Particulars: HeLa cell line expressing HiBiT-BRM; for DC50: read-out: BRM HiBit Degradation IC50. In short, it runs like this: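 Luminescence from reconstituted NanoBiT luciferase in lysed HeLa HiBiT-BRM cells served as the measure of remaining BRM after 24 h treatment. Compounds were tested from 30 μM final downward in 3-fold steps. DMSO and 2 μM of a standard BRM/BRG1 degrader defined the scale limits.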
In general terms: With HiBiT, luminescence reflects the tagged protein that the partner subunit can reach.

Assay [1] concerns the target T2, HiBit-BRG1 fusion protein (Homo sapiens, UniProt P51532).
T2 construct: expressed in transfected cells
Description: HiBiT-BRG1 cell-based degradation assay (Nano-Glo HiBiT Lytic Detection, 24 h). Particulars: HeLa cell line expressing HiBit-BRG1 and LgBit; for Dmax: read-out: BRG1 HiBit Degradation Maximum (%). In short, it runs like this: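 Luminescence from Nano-Glo HiBiT lytic detection, read after 24 h compound exposure, scored degradation in a stable HeLa HiBiT-BRG1/LgBit line seeded at 5000 cells/well. DMSO wells defined 0% and 2 μM known BRM/BRG1 degrader wells defined full degradation.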

T2 sequence (P51532 whole entry, the tested form may be a part): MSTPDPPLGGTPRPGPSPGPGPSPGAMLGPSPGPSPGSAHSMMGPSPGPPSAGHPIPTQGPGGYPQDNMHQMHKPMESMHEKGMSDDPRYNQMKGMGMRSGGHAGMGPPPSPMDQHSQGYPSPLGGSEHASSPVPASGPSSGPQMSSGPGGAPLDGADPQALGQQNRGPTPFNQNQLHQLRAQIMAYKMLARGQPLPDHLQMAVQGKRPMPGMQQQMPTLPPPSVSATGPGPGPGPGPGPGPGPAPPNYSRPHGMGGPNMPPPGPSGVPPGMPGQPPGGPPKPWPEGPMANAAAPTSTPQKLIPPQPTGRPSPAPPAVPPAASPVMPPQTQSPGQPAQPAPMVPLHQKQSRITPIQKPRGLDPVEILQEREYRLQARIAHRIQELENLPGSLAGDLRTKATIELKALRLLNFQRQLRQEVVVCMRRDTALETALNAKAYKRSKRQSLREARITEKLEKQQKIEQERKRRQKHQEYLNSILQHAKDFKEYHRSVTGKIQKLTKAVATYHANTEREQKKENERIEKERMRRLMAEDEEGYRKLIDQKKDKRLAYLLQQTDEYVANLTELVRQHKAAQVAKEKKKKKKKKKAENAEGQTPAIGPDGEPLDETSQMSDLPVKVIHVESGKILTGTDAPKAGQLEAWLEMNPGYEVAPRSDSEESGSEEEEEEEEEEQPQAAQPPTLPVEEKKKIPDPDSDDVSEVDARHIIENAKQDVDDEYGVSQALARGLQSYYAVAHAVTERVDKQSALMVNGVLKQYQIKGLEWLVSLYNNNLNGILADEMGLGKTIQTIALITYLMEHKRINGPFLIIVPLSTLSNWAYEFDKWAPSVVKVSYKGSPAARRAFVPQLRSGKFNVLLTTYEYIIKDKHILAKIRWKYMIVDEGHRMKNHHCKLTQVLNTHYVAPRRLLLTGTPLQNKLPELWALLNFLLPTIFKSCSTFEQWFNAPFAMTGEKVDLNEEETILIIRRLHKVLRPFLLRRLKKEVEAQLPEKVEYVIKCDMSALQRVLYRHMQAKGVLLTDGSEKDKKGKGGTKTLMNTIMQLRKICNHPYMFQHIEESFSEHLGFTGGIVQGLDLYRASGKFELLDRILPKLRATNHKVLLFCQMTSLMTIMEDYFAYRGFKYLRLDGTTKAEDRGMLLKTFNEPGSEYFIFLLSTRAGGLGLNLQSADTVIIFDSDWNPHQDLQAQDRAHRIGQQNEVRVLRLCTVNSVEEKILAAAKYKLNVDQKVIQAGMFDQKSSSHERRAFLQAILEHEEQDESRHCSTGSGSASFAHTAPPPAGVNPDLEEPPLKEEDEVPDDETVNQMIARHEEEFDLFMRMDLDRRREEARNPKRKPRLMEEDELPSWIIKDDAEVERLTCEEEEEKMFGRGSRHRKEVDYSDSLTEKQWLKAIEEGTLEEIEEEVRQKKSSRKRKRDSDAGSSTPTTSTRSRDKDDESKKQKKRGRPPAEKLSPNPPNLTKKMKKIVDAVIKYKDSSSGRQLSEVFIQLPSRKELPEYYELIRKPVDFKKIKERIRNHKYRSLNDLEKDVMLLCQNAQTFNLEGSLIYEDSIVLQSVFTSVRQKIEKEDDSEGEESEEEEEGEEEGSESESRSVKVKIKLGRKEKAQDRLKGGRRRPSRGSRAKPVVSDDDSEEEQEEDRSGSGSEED
T1 sequence (P51531 whole entry, the tested form may be a part): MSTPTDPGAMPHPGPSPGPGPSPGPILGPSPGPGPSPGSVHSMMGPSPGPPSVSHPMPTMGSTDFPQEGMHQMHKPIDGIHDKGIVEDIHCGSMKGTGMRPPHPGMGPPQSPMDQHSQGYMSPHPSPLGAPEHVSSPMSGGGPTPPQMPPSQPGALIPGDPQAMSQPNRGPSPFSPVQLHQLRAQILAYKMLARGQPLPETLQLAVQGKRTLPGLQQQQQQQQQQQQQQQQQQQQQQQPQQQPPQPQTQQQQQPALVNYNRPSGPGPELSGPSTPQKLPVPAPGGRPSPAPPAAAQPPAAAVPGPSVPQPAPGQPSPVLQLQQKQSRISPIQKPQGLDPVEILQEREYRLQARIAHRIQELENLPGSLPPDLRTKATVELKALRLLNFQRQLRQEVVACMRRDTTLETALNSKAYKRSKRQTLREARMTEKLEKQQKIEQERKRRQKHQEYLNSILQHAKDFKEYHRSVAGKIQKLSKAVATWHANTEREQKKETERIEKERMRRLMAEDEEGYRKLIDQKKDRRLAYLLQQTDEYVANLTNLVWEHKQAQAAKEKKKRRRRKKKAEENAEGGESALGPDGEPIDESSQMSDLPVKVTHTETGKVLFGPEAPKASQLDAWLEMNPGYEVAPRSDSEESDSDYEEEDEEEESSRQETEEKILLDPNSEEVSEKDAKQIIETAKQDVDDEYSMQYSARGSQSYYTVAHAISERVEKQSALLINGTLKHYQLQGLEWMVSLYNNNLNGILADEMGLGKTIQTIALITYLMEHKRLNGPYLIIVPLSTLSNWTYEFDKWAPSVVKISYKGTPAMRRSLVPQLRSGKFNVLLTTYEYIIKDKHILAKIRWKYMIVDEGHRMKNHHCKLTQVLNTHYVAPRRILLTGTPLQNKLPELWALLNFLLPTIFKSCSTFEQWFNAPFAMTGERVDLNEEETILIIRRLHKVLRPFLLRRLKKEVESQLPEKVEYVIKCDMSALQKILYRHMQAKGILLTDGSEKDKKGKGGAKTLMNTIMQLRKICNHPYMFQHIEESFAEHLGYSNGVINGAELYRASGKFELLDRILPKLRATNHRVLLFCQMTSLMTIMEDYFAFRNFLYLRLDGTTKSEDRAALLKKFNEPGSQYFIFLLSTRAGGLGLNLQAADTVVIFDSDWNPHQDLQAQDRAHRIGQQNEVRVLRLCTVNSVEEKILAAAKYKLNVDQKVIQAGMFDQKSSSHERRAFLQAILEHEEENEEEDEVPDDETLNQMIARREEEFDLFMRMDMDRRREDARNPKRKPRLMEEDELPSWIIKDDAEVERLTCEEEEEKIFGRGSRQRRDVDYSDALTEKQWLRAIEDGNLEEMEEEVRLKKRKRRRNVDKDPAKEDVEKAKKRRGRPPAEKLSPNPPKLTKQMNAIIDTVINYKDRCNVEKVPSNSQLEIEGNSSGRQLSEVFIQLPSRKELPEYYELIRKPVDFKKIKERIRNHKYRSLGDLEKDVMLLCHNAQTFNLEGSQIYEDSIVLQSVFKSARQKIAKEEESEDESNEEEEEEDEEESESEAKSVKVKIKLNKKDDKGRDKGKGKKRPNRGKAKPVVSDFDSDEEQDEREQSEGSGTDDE

Regarding `Cc1ncsc1-c1ccc([C@H](C)NC(=O)[C@@H]2C[C@@H](O)CN2C(=O)[C@@H](c2cc(OCCN3C[C@@H]4[C@H](C3)[C@H]4c3c[nH]c4nnc(-c5ccccc5O)cc34)no2)C(C)C)cc1` (racemic) [Compound 210, (2S,4R)-4-hydroxy-1-((R)-2-(3-(2-((1R,5S,6S)-6-(3-(2-hydroxyphenyl)-7H-pyrrolo[2,3-c]pyridazin-5-yl)-3-azabicyclo[3.1.0]hexan-3-yl)ethoxy)isoxazol-5-yl)-3-methylbutanoyl)-N-((S)-1-(4-(4-methylthiazol-5-yl)phenyl)ethyl)pyrrolidine-2-carboxamide], the “BRM HiBit Degradation Maximum (%)” value at HiBit-BRM fusion protein was “C (“C” indicates maximum degradation < 50%)”. Also, the Dmax in assay [1] is under 50%.

Take `Cc1ncsc1-c1ccc([C@H](C)NC(=O)[C@@H]2C[C@@H](O)CN2C(=O)[C@@H](c2cc(C3CN(C(=O)c4cc5cc(-c6ccccc6O)nnc5[nH]4)C3)no2)C(C)C)cc1` (single isomer, unassigned) [Compound 178]: at HiBit-BRM fusion protein, the “BRM HiBit Degradation Maximum (%)” value is “C (“C” indicates maximum degradation < 50%)”. For the same compound, the Dmax in assay [1] is under 50%.

On to `Cc1ncsc1-c1ccc(CNC(=O)[C@@H]2C[C@@H](O)CN2C(=O)[C@@H](NC(=O)CCCCCCCCCCC(=O)N2CC(c3cc4cc(-c5ccccc5O)nnc4[nH]3)C2)C(C)(C)C)cc1` [Compound 4, (2S,4R)-4-hydroxy-1-((S)-2-(12-(3-(3-(2-hydroxyphenyl)-7H-pyrrolo[2,3-c]pyridazin-6-yl)azetidin-1-yl)-12-oxododecanamido)-3,3-dimethylbutanoyl)-N-(4-(4-methylthiazol-5-yl)benzyl)pyrrolidine-2-carboxamide], for which, on HiBit-BRM fusion protein, the “BRM HiBit Degradation Maximum (%)” value was “A (“A” indicates maximum degradation ≥ 75%)” and the DC50 was over 100 nM. The Dmax in assay [1] was under 50%.

On to `Cc1ncsc1-c1ccc([C@H](C)NC(=O)[C@@H]2C[C@@H](O)CN2C(=O)[C@@H](c2cc(N3CCC(C(=O)NC(=N)N4CCc5[nH]c6nnc(-c7ccccc7O)cc6c5C4)CC3)no2)C(C)C)cc1` (racemic) [Compound 74, 1-{5-[(2R)-1-[(2S,4R)-4-hydroxy-2-{[(1S)-1-[4-(4-methyl-1,3-thiazol-5-yl)phenyl]ethyl]carbamoyl}pyrrolidin-1-yl]-3-methyl-1-oxobutan-2-yl]-1,2-oxazol-3-yl}-N-[12-(2-hydroxyphenyl)-4,8,10,11-tetraazatricyclo[7.4.0.0^{2,7}]trideca-1(13),2(7),9,11-tetraene-4-carboximidoyl]piperidine-4-carboxamide], for which, at HiBit-BRM fusion protein, the “BRM HiBit Degradation Maximum (%)” value is “A (“A” indicates maximum degradation ≥ 75%)” and the DC50 is over 10 nM. Also, the Dmax in assay [1] was under 50%.

Consider `Cc1ncsc1-c1ccc([C@H](C)NC(=O)[C@@H]2C[C@@H](O)CN2C(=O)[C@@H](c2cc(OCCN3CC(c4cc5cc(-c6ccccc6O)nnc5n4C)C3)no2)C(C)C)cc1` (racemic) [Compound 140, (2S,4R)-4-hydroxy-1-((R)-2-(3-(2-(3-(3-(2-hydroxyphenyl)-7-methyl-7H-pyrrolo[2,3-c]pyridazin-6-yl)azetidin-1-yl)ethoxy)isoxazol-5-yl)-3-methylbutanoyl)-N-((S)-1-(4-(4-methylthiazol-5-yl)phenyl)ethyl)pyrrolidine-2-carboxamide], for which the “BRM HiBit Degradation Maximum (%)” value on HiBit-BRM fusion protein was “C (“C” indicates maximum degradation < 50%)”. The Dmax in assay [1] is under 50%.

`Cc1ncsc1-c1ccc([C@H](C)NC(=O)[C@@H]2C[C@@H](O)CN2C(=O)[C@H](c2cc(C3CCN(C(=O)c4cc5cc(-c6ccccc6O)nnc5[nH]4)CC3)no2)C(C)C)cc1` (single isomer, unassigned) [Compound 201]: on HiBit-BRM fusion protein, the “BRM HiBit Degradation Maximum (%)” value is “C (“C” indicates maximum degradation < 50%)”. For the same compound, the Dmax in assay [1] was under 50%.

Take `O=C1CCC(N2C(=O)c3ccc(N4CC5(CN(CCC(=O)N6CC(c7cc8cc(-c9ccccc9O)nnc8[nH]7)C6)C5)C4)cc3C2=O)C(=O)N1` (centres unmarked) [Compound 34, 2-(2,6-dioxopiperidin-3-yl)-5-(6-(3-(3-(3-(2-hydroxyphenyl)-7H-pyrrolo[2,3-c]pyridazin-6-yl)azetidin-1-yl)-3-oxopropyl)-2,6-diazaspiro[3.3]heptan-2-yl)isoindoline-1,3-dione]: on HiBit-BRM fusion protein, the “BRM HiBit Degradation Maximum (%)” value is “C (“C” indicates maximum degradation < 50%)”. Moreover, the Dmax in assay [1] is under 50%.

In the case of `Cc1ncsc1-c1ccc([C@H](C)NC(=O)[C@@H]2C[C@@H](O)CN2C(=O)[C@@H](c2cc(OCCNC(=O)c3cc4cc(-c5ccccc5O)nnc4[nH]3)no2)C(C)C)cc1` (racemic) [Compound 239, N-(2-((5-((R)-1-((2S,4R)-4-hydroxy-2-(((S)-1-(4-(4-methylthiazol-5-yl)phenyl)ethyl)carbamoyl)pyrrolidin-1-yl)-3-methyl-1-oxobutan-2-yl)isoxazol-3-yl)oxy)ethyl)-3-(2-hydroxyphenyl)-7H-pyrrolo[2,3-c]pyridazine-6-carboxamide], on HiBit-BRM fusion protein, the “BRM HiBit Degradation Maximum (%)” value is listed as “A (“A” indicates maximum degradation ≥ 75%)” and the DC50 was over 100 nM. For the same compound, the Dmax in assay [1] was under 50%.

For `Cc1ncsc1-c1ccc([C@H](C)NC(=O)[C@@H]2C[C@@H](O)CN2C(=O)[C@H](c2cc([C@H]3CC[C@@H](c4cnc(N5CCC(c6c[nH]c7nnc(-c8ccccc8O)cc67)CC5)nc4)CC3)no2)C(C)C)cc1` [Compound 309, (2S,4R)-4-hydroxy-N-[(1S)-1-[4-(4-methyl-1,3-thiazol-5-yl)phenyl]ethyl]-1-[(2S)-3-methyl-2-{3-[(1s,4s)-4-(2-{4-[3-(2-hydroxyphenyl)-7H-pyrrolo[2,3-c]pyridazin-5-yl]piperidin-1-yl}pyrimidin-5-yl)cyclohexyl]-1,2-oxazol-5-yl}butanoyl]pyrrolidine-2-carboxamide], on HiBit-BRM fusion protein, the “BRM HiBit Degradation Maximum (%)” value is given as “B (“B” indicates maximum degradation ≥ 50%)” and the DC50 was over 100 nM. Moreover, the Dmax in assay [1] is under 50%.

With `Cc1ncsc1-c1ccc([C@H](C)NC(=O)[C@@H]2C[C@@H](O)CN2C(=O)[C@@H](c2cc(OCCN(C)C34CC(c5cc6cc(-c7ccccc7O)nnc6[nH]5)(C3)C4)no2)C(C)C)cc1` (racemic) [Compound 302, (2S,4R)-4-hydroxy-1-((R)-2-(3-(2-((3-(3-(2-hydroxyphenyl)-7H-pyrrolo[2,3-c]pyridazin-6-yl)bicyclo[1.1.1]pentan-1-yl)(methyl)amino)ethoxy)isoxazol-5-yl)-3-methylbutanoyl)-N-((S)-1-(4-(4-methylthiazol-5-yl)phenyl)ethyl)pyrrolidine-2-carboxamide], at HiBit-BRM fusion protein, the “BRM HiBit Degradation Maximum (%)” value is on record as “A (“A” indicates maximum degradation ≥ 75%)” and the DC50 is over 10 nM. The Dmax in assay [1] is over 75%. Further, the DC50 in assay [1] (read-out: BRMG1 HiBit Degradation IC50) was over 10 nM.

Consider `O=C1CCC(N2C(=O)c3cccc(OCCOCCOCCC(=O)N4CC(c5cc6cc(-c7ccccc7O)nnc6[nH]5)C4)c3C2=O)C(=O)N1` (centres unmarked) [Compound 23, 2-(2,6-dioxopiperidin-3-yl)-4-(2-(2-(3-(3-(3-(2-hydroxyphenyl)-7H-pyrrolo[2,3-c]pyridazin-6-yl)azetidin-1-yl)-3-oxopropoxy)ethoxy)ethoxy)isoindoline-1,3-dione], for which, at HiBit-BRM fusion protein, the “BRM HiBit Degradation Maximum (%)” value is reported as “C (“C” indicates maximum degradation < 50%)”. Moreover, the Dmax in assay [1] was under 50%.

On to `Cc1ncsc1-c1ccc([C@H](C)NC(=O)[C@@H]2C[C@@H](O)CN2C(=O)[C@@H](c2cc(CN3CC(c4cc5cc(-c6ccccc6O)nnc5[nH]4)C3)no2)C(C)C)cc1` (single isomer, unassigned) [Compound 137], for which the “BRM HiBit Degradation Maximum (%)” value on HiBit-BRM fusion protein is listed as “A (“A” indicates maximum degradation ≥ 75%)”. Further, the Dmax in assay [1] was under 50%.

On to `Cc1ncsc1-c1ccc([C@H](C)NC(=O)[C@@H]2C[C@@H](O)CN2C(=O)[C@@H](c2cc([C@H]3CC[C@@H](c4cnc(N5CCC(c6c[nH]c7nnc(-c8ccccc8O)cc67)CC5)nc4)CC3)no2)C(C)C)cc1` (racemic) [Compound 68, (2S,4R)-4-hydroxy-N-[(1S)-1-[4-(4-methyl-1,3-thiazol-5-yl)phenyl]ethyl]-1-[(2R)-3-methyl-2-{3-[(1s,4s)-4-(2-{4-[3-(2-hydroxyphenyl)-7H-pyrrolo[2,3-c]pyridazin-5-yl]piperidin-1-yl}pyrimidin-5-yl)cyclohexyl]-1,2-oxazol-5-yl}butanoyl]pyrrolidine-2-carboxamide], for which, at HiBit-BRM fusion protein, the “BRM HiBit Degradation Maximum (%)” value is reported as “A (“A” indicates maximum degradation ≥ 75%)” and the DC50 was over 10 nM. In assay [1], the Dmax was under 50%.

Turning to `Cc1ncsc1-c1ccc([C@H](C)NC(=O)[C@@H]2C[C@@H](O)CN2C(=O)[C@@H](c2cc(N3C[C@H]4C[C@@H]3CN4C(=O)[C@H]3C[C@@]4(Cc5cc(-c6ccccc6O)nnc5N4)C3)no2)C(C)C)cc1` (racemic) [Compound 79, (2S,4R)-4-hydroxy-1-((R)-2-(3-((1R,4R)-5-((1R,3s)-3′-(2-hydroxyphenyl)-5′,7′-dihydrospiro[cyclobutane-1,6′-pyrrolo[2,3-c]pyridazine]-3-carbonyl)-2,5-diazabicyclo[2.2.1]heptan-2-yl)isoxazol-5-yl)-3-methylbutanoyl)-N-((S)-1-(4-(4-methylthiazol-5-yl)phenyl)ethyl)pyrrolidine-2-carboxamide], at HiBit-BRM fusion protein, the “BRM HiBit Degradation Maximum (%)” value is listed as “C (“C” indicates maximum degradation < 50%)”. Also, the Dmax in assay [1] was under 50%.
